Data taken from publication PMC4403932 (Journal of Medicinal Chemistry, 2015).
Read-outs that look alike come from different tables or passages of the source.

Experiments:
BAZ2B = target: T1, BAZ2B (Homo sapiens, UniProt Q9UIF8); assay: Protein stability (thermal) shift assay, BAZ2B; type: binding; conditions: compound 10 μM, protein 2 μM; average of triplicate; read-out: ΔTm Shift, BAZ2BA
T1 construct: representative BRDs from other structural subfamilies (family I, PCAF); family III, CREBBP; family IV, BRD9; family V, BAZ2B; made in house
T1 sequence (Q9UIF8 2060-2164 limits assumed): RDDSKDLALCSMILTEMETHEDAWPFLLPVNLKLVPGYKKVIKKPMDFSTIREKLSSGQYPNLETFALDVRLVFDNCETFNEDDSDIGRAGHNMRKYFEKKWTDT

BRDT(2) = target: T2, BRDT(2) (Homo sapiens, UniProt Q58F21); assay: Protein stability (thermal) shift assay, BRDT(2); type: binding
T2 construct: made in house

BRDT(1) = target: T3, BRDT(1) (Homo sapiens, UniProt Q58F21); assay: Protein stability (thermal) shift assay, BRDT(1); type: binding; conditions: compound 10 μM, protein 2 μM; average of triplicate
T3 construct: made in house

PB1(5) = target: T4, PB1(5) (Homo sapiens, UniProt Q86U86); assay: Protein stability (thermal) shift assay, PB1(5); type: binding; conditions: compound 10 μM, protein 2 μM; average of triplicate
T4 construct: made in house

BRD9 [1] = target: T5, BRD9 (Homo sapiens, UniProt Q9H8M2); assay: Protein stability (thermal) shift assay, BRD9; type: binding; conditions: compound 10 μM, protein 2 μM; average of triplicate; read-out: ΔTm Shift, BRD9
T5 construct: made in house
T5 sequence (Q9H8M2 136-240 limits assumed): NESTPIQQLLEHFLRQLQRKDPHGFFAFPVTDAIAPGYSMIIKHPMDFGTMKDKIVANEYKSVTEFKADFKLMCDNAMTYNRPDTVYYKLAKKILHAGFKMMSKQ

BRD2(2) = target: T6, BRD2(2) (Homo sapiens, UniProt P25440); assay: Protein stability (thermal) shift assay, BRD2(2); type: binding; conditions: compound 10 μM, protein 2 μM; average of triplicate
T6 construct: made in house

BRD4(1) = target: T7, BRD4(1) (Homo sapiens, UniProt O60885); assay: Protein stability (thermal) shift assay, BRD4(1); type: binding; conditions: compound 10 μM, protein 2 μM; average of triplicate; read-out: ΔTm Shift, BRD4(1)
T7 construct: made in house

[2] = tested on: human bromodomains (panel); assay: Protein stability (thermal) shift assay, whole panel of human bromodomains; type: binding; conditions: 10 μM compound
Experimental: Thermal melting experiments were carried out using an Mx3005p real time PCR machine (Stratagene). Proteins were buffered in 10 mM HEPES, pH 7.5, 500 mM NaCl and assayed in a 96-well plate at a final concentration of 2 μM in 20 μL volume. Compounds were added at a final concentration of 10 or 100 μM. SYPRO Orange (Molecular Probes) was added as a fluorescence probe at a dilution of 1 in 1000. Excitation and emission filters for the SYPRO-Orange dye were set to 465 and 590 nm, respectively. The temperature was raised with a step of 3 °C per minute from 25 to 96 °C, and fluorescence readings were taken at each interval. The temperature dependence of the fluorescence during the protein denaturation process was approximated by the equation [drawing 1] where ΔuG is the difference in unfolding free energy between the folded and unfolded state, R is the gas constant, and yF and yU are the fluorescence intensity of the probe in the presence of completely folded and unfolded protein, respectively.[65] The baselines of the denatured and native states were approximated by a linear fit. The observed temperature shifts, ΔTm^obs, were recorded as the difference between the transition midpoints of sample and reference wells containing protein without ligand in the same plate and determined by nonlinear least-squares fit. Temperature shifts (ΔTm^obs) for three independent measurements per proteins/compound are summarized in Supporting Information Table S1.

BRD2(1) = target: T8, BRD2(1) (Homo sapiens, UniProt P25440); assay: Protein stability (thermal) shift assay, BRD2(1); type: binding; conditions: compound 10 μM, protein 2 μM; average of triplicate
T8 construct: Fragments were tested in a thermal shift assay against bromodomains of the BET subfamily; made in house

PCAF = target: T9, PCAF (Homo sapiens, UniProt Q92831); assay: Protein stability (thermal) shift assay, PCAF; type: binding; conditions: compound 10 μM, protein 2 μM; average of triplicate
T9 construct: representative BRDs from other structural subfamilies (family I, PCAF); made in house
T9 sequence (Q92831 723-827 limits assumed): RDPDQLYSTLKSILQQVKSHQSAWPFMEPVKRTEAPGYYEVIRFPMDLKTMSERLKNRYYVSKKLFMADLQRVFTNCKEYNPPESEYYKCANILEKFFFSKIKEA

BRD4(2) = target: T10, BRD4(2) (Homo sapiens, UniProt O60885); assay: Protein stability (thermal) shift assay, BRD4(2); type: binding; conditions: compound 10 μM, protein 2 μM; average of triplicate
T10 construct: made in house

CREBBP = target: T11, CREBBP (Homo sapiens, UniProt Q92793); assay: Protein stability (thermal) shift assay, CREBBP; type: binding; conditions: compound 10 μM, protein 2 μM; average of triplicate; read-out: ΔTm Shift, CREBBP
T11 construct: small thermal shits (1.0–1.3 °C) for the bromodomain of CREBBP; made in house

BRD3(2) = target: T12, BRD3(2) (Homo sapiens, UniProt Q15059); assay: Protein stability (thermal) shift assay, BRD3(2); type: binding; conditions: compound 10 μM, protein 2 μM; average of triplicate
T12 construct: made in house

BRD9 [3] = target: T5, BRD9; assay: Isothermal titration calorimetry, BRD9; type: binding; conditions: for LE (ligand efficiency): LE = ΔG/N, N number of non-hydrogen atoms
Experimental: Experiments were carried out on an ITC200 titration microcalorimeter from MicroCal, LLC (GE Healthcare) equipped with a Washing module, with a cell volume of 0.2003 mL, and a 40 μL microsyringe. Experiments were carried out at 15 °C while stirring at 1000 rpm, in ITC buffer (50 mM HEPES, pH 7.5 (at 25 °C), 150 mM NaCl). The microsyringe was loaded with a solution of the protein sample (300−740 μM protein for BRD9 and BRD4(1), respectively, in ITC buffer) and was carefully inserted into the calorimetric cell which was filled with an amount of the ligand (0.2 mL, 20–25 μM in ITC buffer). The system was first allowed to equilibrate until the cell temperature reached 15 °C, and an additional delay of 60 s was applied. All titrations were conducted using an initial control injection of 0.3 μL followed by 38 identical injections of 1 μL with a duration of 2 s (per injection) and a spacing of 120 s between injections. The titration experiments were designed in such a fashion as to ensure complete saturation of the proteins before the final injection. The heat of dilution for the proteins was independent of their concentration and corresponded to the heat observed from the last injection, following saturation of ligand binding, thus facilitating the estimation of the baseline of each titration from the last injection. The collected data were corrected for protein heats of dilution (measured on separate experiments by titrating the proteins into ITC buffer) and deconvoluted using the MicroCal Origin software supplied with the instrument to yield enthalpies of binding (ΔH) and binding constants (KB) in the same fashion as that previously described in detail by Wiseman and co-workers.[66] Thermodynamic parameters were calculated using the basic equation of thermodynamics (ΔG = ΔH – TΔS = −RT ln KB, where ΔG, ΔH, and ΔS are the changes in free energy, enthalpy, and entropy of binding, respectively). In all cases a single binding site model was employed, supplied with the MicroCal Origin software package.

BRD3(1) = target: T13, BRD3(1) (Homo sapiens, UniProt Q15059); assay: Protein stability (thermal) shift assay, BRD3(1); type: binding; conditions: compound 10 μM, protein 2 μM; average of triplicate
T13 construct: Fragments were tested in a thermal shift assay against bromodomains of the BET subfamily; made in house

[4] = Solubility (observation in words); type: physicochemical
[5] = compound 10 μM, protein 2 μM, average of triplicate, read-out: ΔTm Shift, BRDT(2)
[6] = ITC, 50 mM HEPES pH 7.5, 150 mM NaCl, 15 °C, reverse titration, triplicate, read-out: KD

T12 sequence (Q15059 306-415 limits assumed): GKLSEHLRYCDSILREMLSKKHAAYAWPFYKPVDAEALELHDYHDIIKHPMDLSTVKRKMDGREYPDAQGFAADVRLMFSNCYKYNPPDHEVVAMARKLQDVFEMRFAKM
T13 sequence (Q15059 34-140 limits assumed): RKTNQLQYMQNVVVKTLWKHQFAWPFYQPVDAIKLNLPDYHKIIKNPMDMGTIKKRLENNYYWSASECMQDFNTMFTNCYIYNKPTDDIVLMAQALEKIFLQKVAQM
T8 sequence (P25440 74-180 limits assumed): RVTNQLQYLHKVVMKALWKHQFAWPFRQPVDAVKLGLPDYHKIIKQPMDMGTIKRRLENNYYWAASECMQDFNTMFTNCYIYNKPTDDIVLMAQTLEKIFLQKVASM
T4 sequence (Q86U86 653-763 limits assumed): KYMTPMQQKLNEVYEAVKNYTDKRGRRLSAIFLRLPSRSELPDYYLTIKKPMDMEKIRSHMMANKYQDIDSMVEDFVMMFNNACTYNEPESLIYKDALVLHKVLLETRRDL
T6 sequence (P25440 344-453 limits assumed): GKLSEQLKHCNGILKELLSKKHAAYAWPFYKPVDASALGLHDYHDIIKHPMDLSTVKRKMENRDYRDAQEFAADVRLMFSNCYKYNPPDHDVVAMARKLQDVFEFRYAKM
T11 sequence (Q92793 1085-1192 limits assumed): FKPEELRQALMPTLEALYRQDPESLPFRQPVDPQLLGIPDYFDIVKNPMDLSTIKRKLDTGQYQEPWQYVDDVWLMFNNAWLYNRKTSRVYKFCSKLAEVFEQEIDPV

Work on CCCCOc1cc(Br)cc(-c2nc(N)nc3c2ncn3C)c1 [Compound 5b, 2-Amino-6-(3-bromo-5-butoxyphenyl)-9-methylpurine] yielded a ΔTm at 10 µM (BAZ2B) of 0.217 °C, a ΔTm at 10 µM (BRDT(2); [5]) of 1 °C and a ΔTm at 10 µM (BRDT(1)) of 0.45 °C. It also gave a ΔTm at 10 µM (PB1(5)) of 0.5 °C, a ΔTm at 10 µM (BRD9 [1]) of -0.56 °C and a ΔTm at 10 µM (BRD2(2)) of 0.163 °C. For the same compound, the ΔTm at 10 µM (BRD4(1)) was 0.633 °C, the “binding to the bromodomain panel in the ΔTm assay (in words)” value (“binding … in the ΔTm assay (in words)” below) [2] was “very weak or no binding” and the ΔTm at 10 µM (BRD2(1)) was -0.153 °C. The ΔTm at 10 µM (PCAF) was 0.9 °C, the ΔTm at 10 µM (BRD4(2)) was 0.373 °C and the ΔTm at 10 µM (CREBBP) was 1.3 °C. For the same compound, the ΔTm at 10 µM (BRD3(2)) was 0.5 °C, the KD (BRD9 [3]; ITC, 50 mM HEPES pH 7.5, 150 mM NaCl, 15 °C, reverse titration, triplicate) was “no binding/weak” and the ΔTm at 10 µM (BRD3(1)) was 0.227 °C.

Work on COc1ccc(Br)cc1-c1nc(Cl)nc2[nH]cnc12 [Compound 8a, 6-(5-Bromo-2-methoxyphenyl)-2-chloro-9H-purine] yielded a ΔTm at 10 µM (BAZ2B) of -0.7 °C, a ΔTm at 10 µM (BRDT(2); [5]) of -0.164 °C and a ΔTm at 10 µM (BRDT(1)) of -0.541 °C. For the same compound, the ΔTm at 10 µM (PB1(5)) was 1.3 °C, the ΔTm at 10 µM (BRD9 [1]) was 0.9 °C and the ΔTm at 10 µM (BRD2(2)) was -0.564 °C. The ΔTm at 10 µM (BRD4(1)) was 1.3 °C, the “binding … in the ΔTm assay (in words)” value [2] was “loss of affinity toward all BRDs” and the ΔTm at 10 µM (BRD2(1)) was 0.8 °C. For the same compound, the ΔTm at 10 µM (PCAF) was -0.4 °C, the ΔTm at 10 µM (BRD4(2)) was 0.3 °C and the ΔTm at 10 µM (CREBBP) was 2.5 °C. For the same compound, the ΔTm at 10 µM (BRD3(2)) was -0.00857 °C, the Kd (BRD9 [3]; [6]) was 7.87 ± 0.258 µM and the TΔS (BRD9 [3]; ITC, 15 °C) was “–1.57 kcal/mol”. The ΔG (BRD9 [3]; ITC, 15 °C) was “–6.73 kcal/mol”, the “N (stoichiometry)” value (BRD9 [3]; ITC, 15 °C, reverse titration) was 1.06 ± 0.014 and the ΔHobs (BRD9 [3]; ITC, 15 °C, reverse titration) was “–8.30 ± 0.15 kcal/mol”. For the same compound, the Kd (BRD9 [3]; ITC, read-out: dissociation constant) was 7.9 µM, the “LE (ligand efficiency)” value (BRD9 [3]) was 0.35 and the ΔTm at 10 µM (BRD3(1)) was 1 °C.

COc1ccc(Cl)cc1-c1nc(O)nc2[nH]cnc12 [Compound 8e, 6-(5-Chloro-2-methoxyphenyl)-2-hydroxy-9H-purine] showed a ΔTm at 10 µM (BAZ2B) of 1.2 °C, a ΔTm at 10 µM (BRDT(2); [5]) of 1.8 °C and a ΔTm at 10 µM (BRDT(1)) of 1.5 °C. For the same compound, the ΔTm at 10 µM (PB1(5)) was 1.7 °C, the ΔTm at 10 µM (BRD9 [1]) was -0.2 °C and the ΔTm at 10 µM (BRD2(2)) was 1.2 °C. For the same compound, the ΔTm at 10 µM (BRD4(1)) was 2.3 °C, the “binding … in the ΔTm assay (in words)” value [2] was “promiscuously bound to most bromodomains” and the ΔTm at 10 µM (BRD2(1)) was 2.1 °C. The ΔTm at 10 µM (PCAF) was 2 °C, the ΔTm at 10 µM (BRD4(2)) was 1.3 °C and the ΔTm at 10 µM (CREBBP) was 1 °C. It also gave a ΔTm at 10 µM (BRD3(2)) of 1.3 °C, a Kd (BRD9 [3]; [6]) of 7.58 ± 0.365 µM and a TΔS (BRD9 [3]; ITC, 15 °C) of 1.40 kcal/mol. For the same compound, the ΔG (BRD9 [3]; ITC, 15 °C) was “–6.75 kcal/mol”, the “N (stoichiometry)” value (BRD9 [3]; ITC, 15 °C, reverse titration) was 1.05 ± 0.013 and the ΔHobs (BRD9 [3]; ITC, 15 °C, reverse titration) was “–5.35 ± 0.09 kcal/mol”. The “LE (ligand efficiency)” value (BRD9 [3]) was 0.36 and the ΔTm at 10 µM (BRD3(1)) was 1.9 °C.

With COc1ccc(Br)cc1-c1ncnc2[nH]c(C)nc12 [Compound 9a, 6-(5-Bromo-2-methoxyphenyl)-8-methyl-9H-purine] the “solubility (in words)” value [4] was “low solubility”.

With COc1ccc(F)cc1-c1ncnc2[nH]c(C)nc12 [Compound 9b, 6-(5-Fluoro-2-methoxyphenyl)-8-methyl-9H-purine] the ΔTm at 10 µM (BAZ2B) was 0.2 °C, the ΔTm at 10 µM (BRDT(2); thermal shift, 10 μM compound, 2 μM protein, read-out: ΔTm) was 2.9 °C and the ΔTm at 10 µM (BRDT(1)) was 0.2 °C. For the same compound, the ΔTm at 10 µM (PB1(5)) was 0.0705 °C, the ΔTm at 10 µM (BRD9 [1]) was 0.8 °C and the ΔTm at 10 µM (BRD2(2)) was 0.9 °C. The ΔTm at 10 µM (BRD4(1)) was 0.0286 °C, the “binding … in the ΔTm assay (in words)” value [2] was “very low affinity for all bromodomains” and the ΔTm at 10 µM (BRD2(1)) was 0.0729 °C. It also gave a ΔTm at 10 µM (PCAF) of -1.5 °C, a ΔTm at 10 µM (BRD4(2)) of 0.148 °C and a ΔTm at 10 µM (CREBBP) of 0.259 °C. For the same compound, the ΔTm at 10 µM (BRD3(2)) was 0.341 °C and the ΔTm at 10 µM (BRD3(1)) was 0.2 °C.

In the case of Nc1nc(-c2cccc3c2Sc2ccccc2S3)c2nc[nH]c2n1 [Compound 10, 2-Amino-6-thianthrenyl-9H-purine], the ΔTm at 10 µM (BRD9 [1]) is reported as 0.158 °C and the “solubility (in words)” value [4] is reported as “low solubility”.
